# Test results published in patent publication US12011447B2, “Pharmaceutical composition for treating thyroid cancer comprising tyrosine kinase activity inhibitor as active ingredient” (Kyungpook National University Industry-Academic Cooperation …, priority 2017, dated 2024).
# How the values were obtained:
# 8505C cells = test: In vitro 125I uptake assay; format: cell-based, human; details: anaplastic thyroid cancer cells
# Protocol: 8505C cells (1.25×10^5) were seeded and incubated in a 24-well plate for 24 hours, and then treated with TKI-0266 and further incubated for 24 hours. Thereafter, the medium was removed, and the cells were washed with bHBSS (Hank's balanced salt solution containing 0.5% BSA). The cells were incubated with 500 μl of bHBSS, 3.7 kBq carrier-free ^125I (Perkin-Elmer), and 10 μmol/L sodium iodide (specific activity of 740 MBq/mmol) at 37° C. for 30 minutes. Thereafter, the cells were washed twice with cold bHBSS and lysed by adding 500 μL of 2% SDS solution thereto. Radioactivity was measured using a Cobra II gamma-counter (Canberra Packard, Canada). The ^125I uptake values were normalized by comparing the amount of total protein determined by BCA protein assay kit.
# [1] = system: anaplastic thyroid cancer xenograft (8505C-PNIS-PCMV); test: Tumor growth inhibition in xenograft mice (tumor size, R-luc BLI); format: in vivo, Balb/c nude mice; details: single agent administration
# Protocol: Female Balb/c nude mice, 5.5-week old with an average weight of 18.9±0.37 g (mean±standard deviation [SD]), were purchased (Hamamatsu, Shizuoka, Japan). The mice were acclimated under specific pathogen-free conditions for one week before starting the experiment, and were maintained at a temperature of 20 to 25° C. and a relative humidity of 40 to 70%. To establish anaplastic thyroid cancer xenograft mouse models, 8505C-PNIS-PCMV s (5×10^6) were mixed with Matrigel (Corning) at a ratio of 1:1 and injected subcutaneously into the right flank region of each mouse.
# In addition, in order to evaluate the effect of TKI-0266 administration on the treatment of thyroid cancer, mice for use in the experiment were divided into four groups (n=5): the vehicle group; the ^131I-administered group (injected intraperitoneally with 1 mCi Na-^131I on day 2 of the experiment; the TKI-0266-administered group (injected intraperitoneally with 50 mg/kg of TKI-0266 for 5 days); and the group co-administered with ^131I and TKI-0266 (injected intraperitoneally with 50 mg/kg of TKI-0266 for 5 days, and injected intravenously with 1 mCi Na-^131I on day 2; n=5). To measure the degree of tumor growth, h-coelenterazine (15 μg/ml) was administered to the mice by intravenous injection, and then the R-luc activity was monitored by BLI every 5 days.
SMILES,iodine uptake on treatment with NIS inhibitor (8505C cells),tumor size on days 6 and 11 [1]
"[K+].[O-][Cl+3]([O-])([O-])[O-] [KCIO4, reference compound]",completely blocked,–
"[131I-].[Na+] [^131I, Na-^131I, reference compound]",–,continuous increase
